What was measured:
Assay type in all cases: functional
Escherichia coli [1] = assay: Antibacterial activity against Escherichia coli assessed as post-antibiotic sub-MIC effect at 0.4 times MIC concentration pretreated with 10 times MIC concentration for 1 hr followed by 1:1000 dilution by viable plate count method
Staphylococcus aureus [2] = assay: Antibacterial activity against vancomycin-sensitive methicillin-resistant Staphylococcus aureus assessed as post-antibiotic sub-MIC effect at 0.3 times MIC concentration pretreated with 6 times MIC concentration for 1 hr followed by 1:1000 dilution by viable plate count method
Escherichia coli [3] = assay: Antibacterial activity against Escherichia coli assessed as sub-MIC effect at 0.2 times MIC concentration incubated for 1 hr by viable plate count method
Klebsiella pneumoniae [4] = assay: Antibacterial activity against Klebsiella pneumoniae assessed as sub-MIC effect at 0.2 times MIC concentration incubated for 1 hr by viable plate count method
Acinetobacter baumannii [5] = assay: Antibacterial activity against Acinetobacter baumannii assessed as post-antibiotic sub-MIC effect at 0.3 times MIC concentration pretreated with 6 times MIC concentration for 1 hr followed by 1:1000 dilution by viable plate count method
Staphylococcus aureus [6] = assay: Antibacterial activity against vancomycin-intermediate methicillin-resistant Staphylococcus aureus assessed as sub-MIC effect at 0.2 times MIC concentration incubated for 1 hr by viable plate count method
Escherichia coli [7] = assay: Antibacterial activity against Escherichia coli assessed as post antibiotic effect
Staphylococcus aureus [8] = assay: Antibacterial activity against vancomycin-sensitive methicillin-resistant Staphylococcus aureus assessed as post-antibiotic sub-MIC effect at 0.4 times MIC concentration pretreated with 10 times MIC concentration for 1 hr followed by 1:1000 dilution by viable plate count method
Streptococcus pneumoniae [9] = assay: Antibacterial activity against penicillin-intermediate Streptococcus pneumoniae assessed as sub-MIC effect at 0.3 times MIC concentration incubated for 1 hr by viable plate count method
Streptococcus pneumoniae [10] = assay: Antibacterial activity against penicillin-susceptible Streptococcus pneumoniae assessed as sub-MIC effect at 0.3 times MIC concentration incubated for 1 hr by viable plate count method
Streptococcus pneumoniae [11] = assay: Antibacterial activity against penicillin-susceptible Streptococcus pneumoniae assessed as post-antibiotic sub-MIC effect at 0.3 times MIC concentration pretreated with 10 times MIC concentration for 1 hr followed by 1:1000 dilution by viable plate count method
Acinetobacter baumannii [12] = assay: Antibacterial activity against Acinetobacter baumannii assessed as sub-MIC effect at 0.2 times MIC concentration incubated for 1 hr by viable plate count method
Enterococcus faecalis [13] = assay: Antibacterial activity against vancomycin-resistant Enterococcus faecalis assessed as post-antibiotic sub-MIC effect at 0.3 times MIC concentration pretreated with 10 times MIC concentration for 1 hr followed by 1:1000 dilution by viable plate count method
Acinetobacter baumannii [14] = assay: Antibacterial activity against multidrug-resistant Acinetobacter baumannii producing OXA-24 and OXA-51 beta-lactamases assessed as sub-MIC effect at 0.4 times MIC concentration incubated for 1 hr by viable plate count method
Acinetobacter baumannii [15] = assay: Antibacterial activity against multidrug-resistant Acinetobacter baumannii producing OXA-24 and OXA-51 beta-lactamases assessed as post-antibiotic sub-MIC effect at 0.4 times MIC concentration pretreated with 10 times MIC concentration for 1 hr followed by 1:1000 dilution by viable plate count method
Enterobacter cloacae [16] = assay: Antibacterial activity against Enterobacter cloacae assessed as post antibiotic effect at 10 times MIC concentration incubated for 1 hr measured after 1:1000 dilution by viable plate count method
Acinetobacter baumannii [17] = assay: Antibacterial activity against multidrug-resistant Acinetobacter baumannii producing OXA-24 and OXA-51 beta-lactamases assessed as post-antibiotic sub-MIC effect at 0.2 times MIC concentration pretreated with 2 times MIC concentration for 1 hr followed by 1:1000 dilution by viable plate count method
Streptococcus pneumoniae [18] = assay: Antibacterial activity against penicillin-susceptible Streptococcus pneumoniae assessed as post-antibiotic sub-MIC effect at 0.4 times MIC concentration pretreated with 10 times MIC concentration for 1 hr followed by 1:1000 dilution by viable plate count method
Staphylococcus aureus [19] = assay: Antibacterial activity against vancomycin-intermediate methicillin-resistant Staphylococcus aureus assessed as sub-MIC effect at 0.3 times MIC concentration incubated for 1 hr by viable plate count method
Streptococcus pneumoniae [20] = assay: Antibacterial activity against penicillin-resistant Streptococcus pneumoniae assessed as post-antibiotic sub-MIC effect at 0.3 times MIC concentration pretreated with 10 times MIC concentration for 1 hr followed by 1:1000 dilution by viable plate count method
Haemophilus influenzae [21] = assay: Antibacterial activity against beta-lactamase deficient and ampicillin-resistant Haemophilus influenzae assessed as sub-MIC effect at 0.3 times MIC concentration incubated for 1 hr by viable plate count method
Staphylococcus aureus [22] = assay: Antibacterial activity against vancomycin-sensitive methicillin-resistant Staphylococcus aureus assessed as post antibiotic effect at 10 times MIC concentration incubated for 1 hr measured after 1:1000 dilution by viable plate count method
Staphylococcus aureus [23] = assay: Antibacterial activity against vancomycin-intermediate methicillin-resistant Staphylococcus aureus assessed as sub-MIC effect at 0.4 times MIC concentration incubated for 1 hr by viable plate count method
Haemophilus influenzae [24] = assay: Antibacterial activity against amoxicillin, clavulanate-resistant Haemophilus influenzae expressing beta-lactamase assessed as post-antibiotic sub-MIC effect at 0.4 times MIC concentration pretreated with 10 times MIC concentration for 1 hr followed by 1:1000 dilution by viable plate count method
Acinetobacter baumannii [25] = assay: Antibacterial activity against Acinetobacter baumannii assessed as post-antibiotic sub-MIC effect at 0.4 times MIC concentration pretreated with 10 times MIC concentration for 1 hr followed by 1:1000 dilution by viable plate count method
Haemophilus influenzae [26] = assay: Antibacterial activity against amoxicillin, clavulanate-resistant Haemophilus influenzae expressing beta-lactamase assessed as sub-MIC effect at 0.3 times MIC concentration incubated for 1 hr by viable plate count method
Acinetobacter baumannii [27] = assay: Antibacterial activity against Acinetobacter baumannii assessed as sub-MIC effect at 0.4 times MIC concentration incubated for 1 hr by viable plate count method
Enterobacter cloacae [28] = assay: Antibacterial activity against Enterobacter cloacae assessed as post-antibiotic sub-MIC effect at 0.2 times MIC concentration pretreated with 10 times MIC concentration for 1 hr followed by 1:1000 dilution by viable plate count method
Enterococcus faecalis [29] = assay: Antibacterial activity against vancomycin-sensitive Enterococcus faecalis assessed as post-antibiotic sub-MIC effect at 0.2 times MIC concentration pretreated with 10 times MIC concentration for 1 hr followed by 1:1000 dilution by viable plate count method
Staphylococcus aureus [30] = assay: Antibacterial activity against vancomycin-sensitive methicillin-resistant Staphylococcus aureus assessed as post-antibiotic sub-MIC effect at 0.2 times MIC concentration pretreated with 6 times MIC concentration for 1 hr followed by 1:1000 dilution by viable plate count method
Haemophilus influenzae [31] = assay: Antibacterial activity against amoxicillin, clavulanate-resistant Haemophilus influenzae expressing beta-lactamase assessed as post antibiotic effect at 6 times MIC concentration incubated for 1 hr measured after 1:1000 dilution by viable plate count method
Klebsiella pneumoniae [32] = assay: Antibacterial activity against Klebsiella pneumoniae assessed as post antibiotic effect at 2 times MIC concentration incubated for 1 hr measured after 1:1000 dilution by viable plate count method
Streptococcus pneumoniae [33] = assay: Antibacterial activity against penicillin-susceptible Streptococcus pneumoniae assessed as sub-MIC effect at 0.4 times MIC concentration incubated for 1 hr by viable plate count method

With `CN(C)c1cc(NC(=O)CNC(C)(C)C)c(O)c2c1C[C@H]1C[C@H]3[C@H](N(C)C)C(O)=C(C(N)=O)C(=O)[C@@]3(O)C(O)=C1C2=O` [TIGECYCLINE] the PAE (Escherichia coli [1]) was 3.5 h, the PAE (Staphylococcus aureus [2]) was 4.9 h and the PAE (Escherichia coli [3]) was 0 h. The PAE (Klebsiella pneumoniae [4]) was 0.1 h, the PAE (Acinetobacter baumannii [5]) was 10.7 h and the PAE (Staphylococcus aureus [6]) was 2 h. The PAE (Escherichia coli [7]) was 2 h, the PAE (Staphylococcus aureus [8]) was 6.7 h and the PAE (Streptococcus pneumoniae [9]) was 5.7 h. For the same molecule, the PAE (Streptococcus pneumoniae [10]) was 0 h, the PAE (Streptococcus pneumoniae [11]) was 8.8 h and the PAE (Acinetobacter baumannii [12]) was 0.3 h. For the same molecule, the PAE (Enterococcus faecalis [13]) was 10.5 h, the PAE (Acinetobacter baumannii [14]) was 1.9 h and the PAE (Acinetobacter baumannii [15]) was 3.8 h. For the same molecule, the PAE (Enterobacter cloacae [16]) was 1.2 h, the PAE (Acinetobacter baumannii [17]) was 1.2 h and the PAE (Streptococcus pneumoniae [18]) was 9 h. It also gave a PAE (Staphylococcus aureus [19]) of 2.9 h, a PAE (Streptococcus pneumoniae [20]) of 10.2 h and a PAE (Haemophilus influenzae [21]) of 0.8 h. It also gave a PAE (Staphylococcus aureus [22]) of 3.2 h, a PAE (Staphylococcus aureus [23]) of 2.9 h and a PAE (Haemophilus influenzae [24]) of 7.9 h. For the same molecule, the PAE (Acinetobacter baumannii [25]) was 11.2 h, the PAE (Haemophilus influenzae [26]) was 0.8 h and the PAE (Acinetobacter baumannii [27]) was 11.2 h. It also gave a PAE (Enterobacter cloacae [28]) of 3.6 h, a PAE (Enterococcus faecalis [29]) of 5.3 h and a PAE (Staphylococcus aureus [30]) of 3.7 h. For the same molecule, the PAE (Haemophilus influenzae [31]) was 3.9 h, the PAE (Klebsiella pneumoniae [32]) was 1.7 h and the PAE (Streptococcus pneumoniae [33]) was 0.8 h.

From ChEMBL document CHEMBL1629634, “Postantibiotic effect of tigecycline against 14 gram-positive organisms” (Antimicrob Agents Chemother, 2009)
